Laboratory results published in PubChem BioAssay AID743234 (The Scripps Research Institute Molecular Screening Center, 2013).
Activity calls are given as the source filed them. The rule behind the calls is not given here.

Biological target: Trace amine-associated receptor 1 (Homo sapiens) (UniProt Q96RJ0)
Test: TAAR1 antagonists in human receptor cells, late-stage follow-up, cell-based, fluorescence (AID 743234)
Conditions: TAAR1-expressing cells, fluorescence antagonist readout

Trace amine-associated receptor 1 (Homo sapiens), sequence (Q96RJ0 whole entry, looked up): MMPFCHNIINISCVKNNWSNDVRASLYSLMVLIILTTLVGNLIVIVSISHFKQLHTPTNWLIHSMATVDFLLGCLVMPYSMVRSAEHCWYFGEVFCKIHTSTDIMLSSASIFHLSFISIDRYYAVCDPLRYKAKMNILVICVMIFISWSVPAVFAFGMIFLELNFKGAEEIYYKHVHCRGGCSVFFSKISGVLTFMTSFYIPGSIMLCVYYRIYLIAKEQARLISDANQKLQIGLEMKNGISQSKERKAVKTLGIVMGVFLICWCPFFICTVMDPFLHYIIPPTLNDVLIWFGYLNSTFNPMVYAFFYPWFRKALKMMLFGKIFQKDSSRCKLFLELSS

| IC50 | SMILES |
| --- | --- |
| 1.6 µM | Cc1ccc(CSCC(=O)Nc2cc(S(=O)(=O)N3CCOCC3)ccc2OCC(F)(F)F)cc1 |
| inactive | O=C(NCCn1cc(SCc2ccccc2F)c2ccccc21)c1c(F)cccc1F |

More lines, now with the values behind:

| SMILES | IC50 |
| --- | --- |
| Cc1cccc(C(C#N)c2nc3ccccc3nc2C(F)(F)F)c1 (stereo not given) | 1.73 µM |
| COc1cc(NC(=O)c2cc3ccccc3o2)c(OC)cc1Cl | > 29.9 µM (inactive) |
| COc1cccc(-c2nn(-c3ccccc3)cc2C(=O)Nc2nccs2)c1 | inactive |
